Data taken from patent US10689377B2 (Mirati Therapeutics, Inc., priority 2017, dated 2020).

Biological target: KRas G12C (Homo sapiens, UniProt P01116, G12C)
Assay: Cellular inhibition of KRas G12C measured by Phospho-ERK in NCI-H358 cells
Assay type: cell-based
Settings: pERK(Thr202/Tyr204) normalized with GAPDH, NCI-H358 cells, 3 hours; read-out: IC50
How it was run: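 NCI-H358 cells treated 3 h with compound (0.5% DMSO final), then fixed and methanol-permeabilised. In-cell immunofluorescence measured pERK(Thr202/Tyr204) normalised to GAPDH as percent of DMSO control. IC50 from a 4-parameter dose-response fit.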

KRas G12C, sequence (P01116 1-188 isoform P01116-2 G12C): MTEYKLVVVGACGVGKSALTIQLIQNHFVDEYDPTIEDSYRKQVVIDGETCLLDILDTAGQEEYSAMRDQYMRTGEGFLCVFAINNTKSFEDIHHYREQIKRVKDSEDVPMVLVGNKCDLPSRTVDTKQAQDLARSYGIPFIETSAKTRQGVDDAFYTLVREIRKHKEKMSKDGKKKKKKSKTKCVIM

Row | IC50 [nM] | SMILES
1 | > 1000 | C=CC(=O)N1CCN(c2ncnc3c2CCN(c2cncc4ccccc24)C3)CC1 [Example 69, 1-(4-(7-(isoquinolin-4-yl)-5,6,7,8-tetrahydropyrido[3,4-d]pyrimidin-4-yl)piperazin-1-yl)prop-2-en-1-one]
2 | > 1000 | C=CC(=O)N1CCN(c2nc(OCCCN3CCOCC3)nc3c2CCN(c2cc(C(F)F)cc4ccccc24)C3)CC1 [Example 112, 1-(4-(7-(3-(difluoromethyl)naphthalen-1-yl)-2-(3-morpholinopropoxy)-5,6,7,8-tetrahydropyrido[3,4-d]pyrimidin-4-yl)piperazin-1-yl)prop-2-en-1-one]
3 | > 1000 | C=CC(=O)N1CCN(c2nc(OC[C@@H]3CCCN3C)nc3c2CCN(c2cccc4ccccc24)C3)[C@H](C)C1 [Example 353, 1-[(3R)-3-methyl-4-[2-[[(2S)-1-methylpyrrolidin-2-yl]methoxy]-7-(1-naphthyl)-6,8-dihydro-5H-pyrido[3,4-d]pyrimidin-4-yl]piperazin-1-yl]prop-2-en-1-one]
4 | > 1000 | C=CC(=O)N1CCN(c2nc(O[C@H](C)CN(C)C)nc3c2CCN(c2cc(O)ccc2C(F)(F)F)C3)CC1 [Example 79, (R)-1-(4-(2-((1-(dimethylamino)propan-2-yl)oxy)-7-(5-hydroxy-2-(trifluoromethyl)phenyl)-5,6,7,8-tetrahydropyrido[3,4-d]pyrimidin-4-yl)piperazin-1-yl)prop-2-en-1-one]
5 | 0.1 to 1000 | C=CC(=O)N1CCN(c2nc(OC[C@@H]3C[C@@H](F)CN3C(C)C)nc3c2CCN(c2cncc(F)c2C(F)(F)F)C3)C[C@@H]1CC#N [Example 386, 2-((S)-1-acryloyl-4-(2-(((2S,4R)-4-fluoro-1-isopropylpyrrolidin-2-yl)methoxy)-7-(5-fluoro-4-(trifluoromethyl)pyridin-3-yl)-5,6,7,8-tetrahydropyrido[3,4-d]pyrimidin-4-yl)piperazin-2-yl)acetonitrile]
6 | > 1000 | C=CC(=O)N1CCN(c2nc(OC(C)CN(C)C)nc3c2CCN(c2cccc4ccccc24)C3)CC1 (centres unmarked) [Example 24, 1-(4-(2-((1-(dimethylamino)propan-2-yl)oxy)-7-(naphthalen-1-yl)-5,6,7,8-tetrahydropyrido[3,4-d]pyrimidin-4-yl)piperazin-1-yl)prop-2-en-1-one]
7 | 0.1 to 1000 | C=CC(=O)N1CCN(c2nc(OC[C@@H]3CCCN3C)nc3c2CCN(c2cccc4c(F)cccc24)C3)CC1CC#N (stereo partly drawn) [Example 287, 2-[4-[7-(5-fluoro-1-naphthyl)-2-[[(2S)-1-methylpyrrolidin-2-yl]methoxy]-6,8-dihydro-5H-pyrido[3,4-d]pyrimidin-4-yl]-1-prop-2-enoyl-piperazin-2-yl]acetonitrile]
8 | > 1000 | C=CC(=O)N1CCN(c2nc(OC[C@H]3CCCC(=O)N3)nc3c2CCN(c2cc(O)cc4ccccc24)C3)CC1 (single isomer, unassigned) [Example 62]
9 | > 1000 | C=CC(=O)N1CCN(c2nc(N3CCOCC3)nc3c2CCN(c2cc(O)cc4ccccc24)C3)CC1 [Example 118, 1-(4-(7-(3-hydroxynaphthalen-1-yl)-2-morpholino-5,6,7,8-tetrahydropyrido[3,4-d]pyrimidin-4-yl)piperazin-1-yl)prop-2-en-1-one]
10 | > 1000 | C=CC(=O)N1CCN(c2nc(OCCCN3CCOCC3)nc3c2CCN(c2c(C)ccc4[nH]ncc24)C3)CC1 [Example 44, 1-(4-(7-(5-methyl-1H-indazol-4-yl)-2-(3-morpholinopropoxy)-5,6,7,8-tetrahydropyrido[3,4-d]pyrimidin-4-yl)piperazin-1-yl)prop-2-en-1-one]
11 | > 1000 | C=CC(=O)N1CCN(c2nc(OC3CCN(C4CC4)CC3)nc3c2CCN(c2cc(O)cc4ccccc24)C3)CC1 [Example 100, 1-(4-(2-((1-cyclopropylpiperidin-4-yl)oxy)-7-(3-hydroxynaphthalen-1-yl)-5,6,7,8-tetrahydropyrido[3,4-d]pyrimidin-4-yl)piperazin-1-yl)prop-2-en-1-one]
